This assay has as its target T1, recombinant sEH (Homo sapiens, UniProt P34913).
T1 construct: made in house; host or cells: Sf9 insect cells
T1 sequence (P34913 1-555): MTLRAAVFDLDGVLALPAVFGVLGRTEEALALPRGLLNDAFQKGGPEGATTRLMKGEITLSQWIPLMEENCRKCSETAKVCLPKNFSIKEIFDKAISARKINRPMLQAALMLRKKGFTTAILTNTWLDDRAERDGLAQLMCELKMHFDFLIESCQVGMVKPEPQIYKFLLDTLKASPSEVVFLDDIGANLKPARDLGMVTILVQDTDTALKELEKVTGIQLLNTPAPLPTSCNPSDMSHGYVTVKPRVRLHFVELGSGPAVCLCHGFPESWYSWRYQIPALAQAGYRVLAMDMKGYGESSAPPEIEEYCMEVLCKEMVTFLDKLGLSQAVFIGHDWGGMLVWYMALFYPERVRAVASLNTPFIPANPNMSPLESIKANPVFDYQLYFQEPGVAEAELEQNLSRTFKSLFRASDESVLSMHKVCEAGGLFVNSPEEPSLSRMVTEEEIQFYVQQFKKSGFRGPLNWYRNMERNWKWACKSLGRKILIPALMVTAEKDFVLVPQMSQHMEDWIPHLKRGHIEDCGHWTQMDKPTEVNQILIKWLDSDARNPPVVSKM
Kind of assay: biochemical screening assay for inhibition of soluble epoxide hydrolase (fluorometric, Phome substrate). The procedure:
The ability of the compounds of the formula I to inhibit soluble epoxide hydrolase can be determined as follows:
Compounds were tested in a biochemical screening assay using recombinant sEH purified from Sf9 insect cells and an artificial substrate, (3-phenyl-oxiranyl)-acetic acid cyano-(6-methoxy-naphtalen-2-yl)-methyl ester, Phome. The biochemical assay was performed in analogy to a fluorometric method described in the literature (P. D. Jones et al., Anal. Biochem. 2005, 343, 66-75). The assay principle bases on the sEH-catalyzed hydrolysis of an artificial α-cyano-ester substrate. 0-deacetylation liberates a cyanohydrin intermediate that rapidly decomposes to the highly fluorescent 6-methoxy-2-naphtaldehyde. To discriminate sample autofluorescence, the assay was carried out as a kinetic measurement with two time points. The first measurement is performed immediately before addition of the substrate and the second measurement is done after completion of the assay. The assay format is either in 96- or in 384-well format. Details of the assay using a 96-well plate format are described below. 40 μL recombinant sEH enzyme and 5 μL test compound are pre-incubated for 15 minutes at 30° C. Following pre-incubation, the reaction is started by addition of 5 μL Phome. The assay mixture containing 2 nM final sEH concentration, test compound ranging in a concentration from 0.0001-10 μM and 5 μM Phome is incubated for 60 minutes at 30° C.
Fluorescence can be measured with any suitable detector for instance a TECAN Safire or Tecan Ultra at […]. % inhibition of recombinant sEH activity is used for calculation of corresponding IC50 values as illustrated and described in the examples.
The NCBI gene bank reference sequence with the accession number NM_001979 for EPHX2/sEH was applied for recombinant protein production:
The following commercially available materials have been used: • Incubation reagent: 25 mM Hepes (Sigma-Aldrich, Cat. No H-3375), 0.01% bovine albumin (Sigma-Aldrich Cat. No PA9205) • Substrate: 3-Phenyl-oxiranyl)-acetic acid cyano-(6-methoxy-naphtalen-2-yl)-methyl ester, Phome (Biozol Cat. No 10003134) • Microtiter plates: 96-well plates (Greiner Cat. No 655180; Costar Cat. No 3915)

Where a name gives a salt, the structure may show the parent alone.

The source of these data is patent US9540391B2, “Isomannide derivatives as inhibitors of soluble epoxide hydrolase” (SANOFI, priority 2013, dated 2017).

Broadly, the IC50 is the concentration that inhibits the measured activity by half. For the compound `O=C(NC1CCCCC1)N[C@H]1CO[C@H]2[C@@H]1OC[C@@H]2Sc1ccccn1` [Example 54, 1-Cyclohexyl-3-[(3S,3aR,6S,6aS)-6-(pyridin-2-ylsulfanyl)-hexahydro-furo[3,2-b]furan-3-yl]-urea], the IC50 was 1 nM.
As to `O=C(NC1CCCCC1)N[C@H]1CO[C@H]2[C@@H]1OC[C@@H]2Sc1cnccn1` [Example 55, 1-Cyclohexyl-3-[(3S,3aR,6S,6aS)-6-(pyrazin-2-ylsulfanyl)-hexahydro-furo[3,2-b]furan-3-yl]-urea], the IC50 is less than 1 nM.
Next, `O=C(NC1CCCCC1)N[C@H]1CO[C@H]2[C@@H]1OC[C@@H]2Sc1nccs1` [Example 56, 1-Cyclohexyl-3-[(3S,3aR,6S,6aS)-6-(thiazol-2-ylsulfanyl)-hexahydro-furo[3,2-b]furan-3-yl]-urea]: 2 nM; `Cc1ccc(S[C@H]2CO[C@H]3[C@@H]2OC[C@@H]3NC(=O)NC2CCCCC2)nn1` [Example 57, 1-Cyclohexyl-3-[(3S,3aR,6S,6aS)-6-(6-methyl-pyridazin-3-ylsulfanyl)-hexahydro-furo[3,2-b]furan-3-yl]-urea]: 3 nM; `Cc1csc(S[C@H]2CO[C@H]3[C@@H]2OC[C@@H]3NC(=O)NC2CCCCC2)n1` [Example 58, 1-Cyclohexyl-3-[(3S,3aR,6S,6aS)-6-(4-methyl-thiazol-2-ylsulfanyl)-hexa-hydro-furo[3,2-b]furan-3-yl]-urea]: 2 nM.
The result for `Cc1ccc(S[C@H]2CO[C@H]3[C@@H]2OC[C@@H]3NC(=O)NC2CCCCC2)nc1` [Example 59, 1-Cyclohexyl-3-[(3S,3aR,6S,6aS)-6-(5-methyl-pyridin-2-ylsulfanyl)-hexa-hydro-furo[3,2-b]furan-3-yl]-urea] reads 2 nM; that for `N#Cc1ccc(S[C@H]2CO[C@H]3[C@@H]2OC[C@@H]3NC(=O)NC2CCCCC2)nc1` [Example 60, 1-[(3S,3aR,6S,6aS)-6-(5-Cyano-pyridin-2-ylsulfanyl)-hexahydro-furo[3,2-b]furan-3-yl]-3-cyclohexyl-urea], 4 nM.
In the case of `Cc1cc(S[C@H]2CO[C@H]3[C@@H]2OC[C@@H]3NC(=O)NC2CCCCC2)nc(C)n1` [Example 61, 1-Cyclohexyl-3-[(3S,3aR,6S,6aS)-6-(2,6-dimethyl-pyrimidin-4-ylsulfanyl)-hexahydro-furo[3,2-b]furan-3-yl]-urea], the IC50 is less than 1 nM.
The result for `Cc1nc(S[C@H]2CO[C@H]3[C@@H]2OC[C@@H]3NC(=O)NC2CCCCC2)sc1C` [Example 62, 1-Cyclohexyl-3-[(3S,3aR,6S,6aS)-6-(4,5-dimethyl-thiazol-2-ylsulfanyl)-hexahydro-furo[3,2-b]furan-3-yl]-urea] reads 1 nM; that for `O=C(NC1CCCCC1)N[C@H]1CO[C@H]2[C@@H]1OC[C@@H]2Sc1ccc(Cl)cn1` [Example 63, 1-[(3S,3aR,6S,6aS)-6-(5-Chloro-pyridin-2-ylsulfanyl)-hexahydro-furo[3,2-b]furan-3-yl]-3-cyclohexyl-urea], 1 nM.
The result for `O=C(NC1CCCCC1)N[C@H]1CO[C@H]2[C@@H]1OC[C@@H]2Oc1cnc(Cl)c(F)c1` [Example 64, 1-[(3S,3aR,6S,6aS)-6-(6-Chloro-5-fluoro-pyridin-3-yloxy)-hexahydro-furo[3,2-b]furan-3-yl]-3-cyclohexyl-urea] reads 2 nM; that for `Cc1cc(O[C@H]2CO[C@H]3[C@@H]2OC[C@@H]3NC(=O)NC2CCCCC2)cnc1Cl` [Example 65, 1-[(3S,3aR,6S,6aS)-6-(6-Chloro-5-methyl-pyridin-3-yloxy)-hexahydro-furo[3,2-b]furan-3-yl]-3-cyclohexyl-urea], 2 nM.
Take `Cc1cc(Cl)ncc1O[C@H]1CO[C@H]2[C@@H]1OC[C@@H]2NC(=O)NC1CCCCC1` [Example 66, 1-[(3S,3aR,6S,6aS)-6-(6-Chloro-4-methyl-pyridin-3-yloxy)-hexahydro-furo[3,2-b]furan-3-yl]-3-cyclohexyl-urea]: the IC50 was found to be 2 nM.
As to `Cc1cc(O[C@H]2CO[C@H]3[C@@H]2OC[C@@H]3NC(=O)NC2CCCCC2)cc(C)n1` [Example 67, 1-Cyclohexyl-3-[(3S,3aR,6S,6aS)-6-(2,6-dimethyl-pyridin-4-yloxy)-hexa-hydro-furo[3,2-b]furan-3-yl]-urea], the concentration for half-maximal inhibition (IC50) came out at 1 nM.
Next, `CC(C)(O)c1cncc(O[C@H]2CO[C@H]3[C@@H]2OC[C@@H]3NC(=O)NC2CCCCC2)c1` [Example 68, 1-cyclohexyl-3-{(3S,3aR,6S,6aS)-6-[5-(1-hydroxy-1-methyl-ethyl)-pyridin-3-yloxy]-hexahydro-furo[3,2-b]furan-3-yl}-urea; hydrochloride]: 2 nM; `CCC(O)(CC)c1cncc(O[C@H]2CO[C@H]3[C@@H]2OC[C@@H]3NC(=O)NC2CCCCC2)c1` [Example 69, 1-cyclohexyl-3-{(3S,3aR,6S,6aS)-6-[5-(1-ethyl-1-hydroxy-propyl)-pyridin-3-yloxy]-hexahydro-furo[3,2-b]furan-3-yl}-urea]: 2 nM.
The result for `O=C(NC1CCCCC1)N[C@H]1CO[C@H]2[C@@H]1OC[C@@H]2Oc1ccc(N2CCCC2)nc1` [Example 70, 1-cyclohexyl-3-[(3S,3aR,6S,6aS)-6-(6-pyrrolidin-1-yl-pyridin-3-yloxy)-hexahydro-furo[3,2-b]furan-3-yl]-urea] reads 1 nM; that for `O=C(NC1CCCCC1)N[C@H]1CO[C@H]2[C@@H]1OC[C@@H]2Oc1ccc(N2CCC(F)(F)CC2)nc1` [Example 71, 1-Cyclohexyl-3-[(3S,3aR,6S,6aS)-6-(4,4-difluoro-3,4,5,6-tetrahydro-2H-[1,2′]bipyridinyl-5′-yloxy)-hexahydro-furo[3,2-b]furan-3-yl]-urea], 7 nM.
In the case of `CCN(CC)c1ccc(O[C@H]2CO[C@H]3[C@@H]2OC[C@@H]3NC(=O)NC2CCCCC2)cn1` [Example 72, 1-Cyclohexyl-3-[(3S,3aR,6S,6aS)-6-(6-diethylamino-pyridin-3-yloxy)-hexa-hydro-furo[3,2-b]furan-3-yl]-urea], the IC50 is less than 1 nM.
With `O=C(NC1CCCCC1)N[C@H]1CO[C@H]2[C@@H]1OC[C@@H]2Oc1ccc(N2CCOCC2)nc1` [Example 73, 1-Cyclohexyl-3-[(3S,3aR,6S,6aS)-6-(6-morpholin-4-yl-pyridin-3-yloxy)-hexahydro-furo[3,2-b]furan-3-yl]-urea], the IC50 came out at 4 nM.
The result for `O=C(NC1CCCCC1)N[C@H]1CO[C@H]2[C@@H]1OC[C@@H]2S(=O)(=O)C1CCCCC1` [Example 74, 1-((3S,3aR,6S,6aS)-6-cyclohexanesulfonyl-hexahydro-furo[3,2-b]furan-3-yl)-3-cyclohexyl-urea] reads 5 nM; that for `O=C(NC1CCCCC1)N[C@H]1CO[C@H]2[C@@H]1OC[C@@H]2Oc1cccc(N2CCCCC2)c1` [Example 75, 1-cyclohexyl-3-[(3S,3aR,6S,6aS)-6-(3-piperidin-1-yl-phenoxy)-hexahydro-furo[3,2-b]furan-3-yl]-urea], 2 nM.
The result for `Cc1ncccc1O[C@H]1CO[C@H]2[C@@H]1OC[C@@H]2NC(=O)NC1CCCCC1` [Example 76, 1-cyclohexyl-3-[(3S,3aR,6S,6aS)-6-(2-methyl-pyridin-3-yloxy)-hexahydro-furo[3,2-b]furan-3-yl]-urea] reads 2 nM; that for `O=C(NC1CCC(F)(F)CC1)N[C@H]1CO[C@H]2[C@@H]1OC[C@@H]2Oc1ccc(F)cc1` [Example 77, 1-(4,4-difluoro-cyclohexyl)-3-[(3S,3aR,6S,6aS)-6-(4-fluoro-phenoxy)-hexahydro-furo[3,2-b]furan-3-yl]-urea], 17 nM.
